Reference: PubChem BioAssay AID540274 (Sanford-Burnham Center for Chemical Genomics, 2011)
Activity calls are given as the source filed them.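 Rule for the calls: active = mean IC50 below 100 µM; inactive = the rest.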

Biological target: intestinal alkaline phosphatase Alpi (Mus musculus)
Assay: mouse IAP inhibition by analogs, SAR follow-up, selectivity assay for human IAP inhibitor project, biochemical, ortholog specificity, luminescence, set 2 (AID 540274)
Settings: purified mouse IAP, CDP-Star luminescence, 30 min

| SMILES | IC50 |
| --- | --- |
| COc1ccc(NC(=O)CNS(=O)(=O)c2ccc3[nH]c(=O)oc3c2)cc1OC | 23 µM |
| N#Cc1ccc(CNC(=O)CCNS(=O)(=O)c2ccc3[nH]c(=O)oc3c2)cc1 | > 100 µM (inactive) |
| O=C(CNS(=O)(=O)c1ccc2[nH]c(=O)oc2c1)Nc1ccc2c(c1)OCO2 | 5.05 µM |
| O=C(CNS(=O)(=O)c1ccc2[nH]c(=O)oc2c1)NCc1ccc2c(c1)OCO2 | 3.31 µM |
| Cc1ccc(C)c(NC(=O)CCNS(=O)(=O)c2ccc3[nH]c(=O)oc3c2)c1 | 0.219 µM |
